Measured values published in patent US20190240184A1, “PHARMACEUTICAL APPLICATIONS FOR (S)-N[…] SALTS THEREOF” (NATIONAL UNIVERSITY CORPORATION CHIBA UNIVERSITY, priority 2016, published 2019).

What was measured:
normal mice [1] = assay: Hyperlocomotion test (side effects); conditions: for time after administration at which enhanced amount of locomotion returned to a normal value: ketamine 10 mg/kg, norketamine 20 mg/kg, (S)-ketamine 10 mg/kg
normal mice [2] = assay: Prepulse inhibition test (side effects)
normal mice [3] = assay: Conditioned place preference test (CPP) (side effects); conditions: 20 mg/kg; vs saline
LPS-treated mice [4] = assay: Tail suspension test (TST) in LPS-induced inflammatory model of depression; conditions: for immobility time in TST: TST 3 h after
LPS-treated mice [5] = assay: Forced swimming test (FST) in LPS-induced inflammatory model of depression; conditions: for immobility time in FST: FST 5 h after
[6] = tested on: social defeat stress mice; assay: Golgi staining, spine density in brain regions of social defeat stress mice; format: in vivo; conditions: 10 mg/kg intraperitoneally, eight days after administration
[7] = tested on: social defeat stress mice; assay: 1% sucrose preference test (SPT) in social defeat stress model of depression; conditions: 10 mg/kg intraperitoneally, seven days after administration
[8] = tested on: social defeat stress mice; assay: Forced swimming test (FST) in social defeat stress model of depression; format: in vivo; conditions: 10 mg/kg intraperitoneally; for immobility time in FST: single administration
Experimental: (§1) The TST was performed as follows. […] The FST was performed as follows. […] The LMT was performed as follows. […] The SPT was performed as follows.

[9] = tested on: social defeat stress mice; assay: Tail suspension test (TST) in social defeat stress model of depression; format: in vivo; conditions: 10 mg/kg intraperitoneally; for immobility time in TST: single administration
Experimental: as §1

NMDA receptor = conditions: Non-Patent Document 12; cited from earlier work
[10] = Plasma concentration of (S)-norketamine after peroral administration of (S)-norketamine derivative; format: in vivo; conditions: mice; 30 mg/kg perorally; 15 min to 8 h
Experimental: The pharmacokinetic profile of an (S)-norketamine derivative was investigated through measurement of the blood concentration of (S)-norketamine after administration thereof.
The obtained blood plasma was placed into a polypropylene microtube and stored in a freezer at −80° C.
The plasma concentration of (S)-norketamine was measured by the method described below.
STD (standard) solution (10 μL) was added to mouse plasma (20 μL) as a calibration curve sample. A mixture of acetonitrile/water (1:1, v/v) was added to a sample, a blank sample, and a QC (quality control) sample.
Agitation was performed for 10 seconds, and I.S. (internal standard) solution (Norketamine-D4: 10 ng/mL) (100 μL) was added. A mixture of acetonitrile and methanol (=9:1) was added to the blank sample.
Agitation was performed for 30 seconds, followed by centrifugation at room temperature and 16,000×g for three minutes. The supernatant (80 μL) was transferred to a new microtube, and 0.001 mol/L ammonium hydrogen carbonate (100 μL) was added to the microtube.
Agitation was performed for 10 seconds, followed by centrifugation at room temperature and 16,000×g for two minutes.
The (S)-norketamine concentration was measured through HPLC.
The measurement conditions are as follows.

[11] = 10 mg/kg intraperitoneally, vs LPS-treated mice administered saline
[12] = 10 mg/kg each, intraperitoneally
[13] = 5, 10, or 20 mg/kg intraperitoneally 23 h after LPS

Compound	time after administration at which enhanced amount of locomotion returned to a normal value (normal mice [1])	CPP score (conditioned place preference, drug dependence) (normal mice [3])	immobility time in TST (LPS-treated mice [4]; [11])	immobility time in FST (LPS-treated mice [5]; [11])	spine density in frontal cortex (prelimbic region), hippocampus CA3 region and hippocampal dentate gyrus [6]	spine density in nucleus accumbens (core region and shell region) [6]	sucrose consumption preference in SPT [7]	immobility time in FST [8]	immobility time in TST [9]	other results
CN[C@]1(c2ccccc2Cl)CCCCC1=O [(S)-ketamine]	30 min	significantly increase the CPP score								amount of locomotion (hyperlocomotion effect) (normal mice [1]; 10 mg/kg, 10 minutes and 20 minutes after administration, vs normal mice administered saline): significant increase in amount of locomotion; prepulse inhibition deficit (normal mice [2]; 10 mg/kg): induced prepulse inhibition deficit
CNC1(c2ccccc2Cl)CCCCC1=O (racemic) [ketamine]	20 min		significantly reduced immobility time	significantly reduced immobility time						amount of locomotion (hyperlocomotion effect) (normal mice [1]; 10 mg/kg, 10 minutes after administration, vs normal mice administered saline): significant increase in amount of locomotion; prepulse inhibition deficit (normal mice [2]; 10 mg/kg, prepulse stimulation at 77 dB or 81 dB): induced prepulse inhibition deficit
N[C@@]1(c2ccccc2Cl)CCCCC1=O [(R)-norketamine]					did not exhibit the effect of increasing the spine density	not affected	did not restore it	did not exhibit an antidepressant effect	did not exhibit an antidepressant effect	
N[C@]1(c2ccccc2Cl)CCCCC1=O [(S)-norketamine]		did not increase the CPP score			significantly increased the spine density	not affected	significantly restored the sucrose consumption preference	significantly reduced immobility time	significantly reduced immobility time	antidepressant effect in FST compared with (R)-norketamine [8]: significantly higher antidepressant effect than (R)-norketamine; amount of locomotion (hyperlocomotion effect) (normal mice [1]; 5, 10, or 20 mg/kg): did not affect the amount of locomotion; prepulse inhibition deficit (normal mice [2]; 5, 10, or 20 mg/kg): did not induce prepulse inhibition deficit; antidepressant effect in TST compared with (R)-norketamine [9]: significantly higher antidepressant effect than (R)-norketamine
NC1(c2ccccc2Cl)CCCCC1=O (centres unmarked) [norketamine]	20 min		significantly reduced immobility time	significantly reduced immobility time						antidepressant effect in TST compared with ketamine (LPS-treated mice [4]; [12]): significantly stronger compared to ketamine; immobility time in TST (LPS-treated mice [4]; [13]): dose-dependently reduced immobility time; amount of locomotion (hyperlocomotion effect) (normal mice [1]; 5 mg/kg or 10 mg/kg): did not affect the amount of locomotion; amount of locomotion compared with ketamine (10 mg/kg) (normal mice [1]; 20 mg/kg, 10 minutes after administration): significantly lower than that in the mice administered ketamine (10 mg/kg); amount of locomotion (hyperlocomotion effect) (normal mice [1]; 20 mg/kg, 10 minutes after administration, vs normal mice administered saline): significant increase in amount of locomotion; affinity for an NMDA receptor, factor lower than ketamine (NMDA receptor): about 6.8 fold; antidepressant effect in FST compared with ketamine (LPS-treated mice [5]; [12]): significantly stronger compared to ketamine; immobility time in FST (LPS-treated mice [5]; [13]): dose-dependently reduced immobility time; prepulse inhibition deficit (normal mice [2]; 5 mg/kg or 10 mg/kg): did not induce prepulse inhibition deficit; prepulse inhibition deficit (normal mice [2]; 20 mg/kg, prepulse stimulation at 81 dB): significantly induced prepulse inhibition deficit
Cc1oc(=O)oc1COC(=O)N[C@]1(c2ccccc2Cl)CCCCC1=O [Compound 1, (5-methyl-2-oxo-1,3-dioxol-4-yl)methyl-(S)-(1-(2-chlorophenyl)-2-oxocyclohexyl) carbamate]										decrease of blood concentration compared with (S)-norketamine derivative (2) [10]: decreased more slowly
